From patent publication US10919885B2, “Compounds and uses thereof” (Yumanity Therapeutics, Inc., priority 2018, dated 2021)

What was measured:
human SCD5 = human SCD5 (Homo sapiens (Human), UniProt Q86SK9); experiment: Yeast growth assay, strain expressing human SCD5 as the sole desaturase (reduced growth as surrogate for SCD inhibition); type: cell-based; settings: yeast with OLE1 deleted expressing human SCD5 from a plasmid; growth read as OD600 after 40 h at 30° C.; top drug concentration 33.3 μM
Outline: (§1)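 Yeast lacking OLE1 depend on plasmid-borne human SCD1 or SCD5 and are tested in SD-Ura medium without oleic/palmitoleic acid or Tween.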

human SCD1 = human SCD1 (Homo sapiens (Human), UniProt O00767); experiment: Yeast growth assay, strain expressing human SCD1 as the sole desaturase (reduced growth as surrogate for SCD inhibition); type: cell-based; settings: yeast with OLE1 deleted expressing human SCD1 from a plasmid; growth read as OD600 after 40 h at 30° C.; top drug concentration 33.3 μM
Outline: as §1

Sequence of human SCD5 (Q86SK9 whole entry): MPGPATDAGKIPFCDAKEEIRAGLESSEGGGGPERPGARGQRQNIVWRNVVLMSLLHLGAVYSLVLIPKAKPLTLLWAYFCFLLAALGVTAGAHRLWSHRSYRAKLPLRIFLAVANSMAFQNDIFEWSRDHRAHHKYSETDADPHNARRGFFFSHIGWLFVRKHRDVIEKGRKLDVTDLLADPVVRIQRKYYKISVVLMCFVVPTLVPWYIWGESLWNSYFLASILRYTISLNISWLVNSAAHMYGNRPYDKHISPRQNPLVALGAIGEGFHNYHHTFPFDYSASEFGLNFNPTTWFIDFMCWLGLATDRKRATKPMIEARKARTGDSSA
Sequence of human SCD1 (O00767 whole entry): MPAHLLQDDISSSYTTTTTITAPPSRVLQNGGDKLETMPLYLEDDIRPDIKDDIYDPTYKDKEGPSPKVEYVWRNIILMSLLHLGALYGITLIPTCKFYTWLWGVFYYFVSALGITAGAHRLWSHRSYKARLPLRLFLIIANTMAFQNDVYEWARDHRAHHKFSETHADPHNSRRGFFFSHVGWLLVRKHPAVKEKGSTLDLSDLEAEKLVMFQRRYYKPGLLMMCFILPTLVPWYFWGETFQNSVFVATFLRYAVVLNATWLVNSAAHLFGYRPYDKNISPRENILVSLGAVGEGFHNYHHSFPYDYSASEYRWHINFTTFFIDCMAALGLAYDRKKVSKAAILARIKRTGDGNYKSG

Row | SMILES | IC50 (human SCD5) [µM] | IC50 (human SCD1) [µM]
1 | O=C(Nc1cnn(Cc2ccccc2Cl)c1)c1cc(-c2cccc3c2cnn3C2COC2)on1 [Compound 94] | > 45 | > 45
2 | O=C(Nc1cnn(Cc2ccccc2)c1)c1cc(-c2cccc3cnn(C4COC4)c23)on1 [Compound 96] | > 45 | > 45
3 | COc1ccc(C2CCCN2C(=O)c2cc(-c3ccc(F)c(F)c3)on2)cc1 (stereo not drawn) [Compound 378] | > 45 | > 45
4 | O=C(Nc1cnn(Cc2ccccc2)c1)c1cc(-c2ccccc2Cl)on1 [Compound 141] | > 45 | > 45
5 | COc1ccc(C2CCCN2C(=O)c2cc(-c3ccc(C(F)(F)C(F)(F)F)cc3)on2)cc1 (stereo not drawn) [Compound 392] | > 45 | > 45
6 | O=C(Nc1cnn(Cc2cccc(F)c2)c1)c1cc(-c2ccno2)on1 [Compound 168] | > 45 | > 45
